Source: patent US9150545B2, “Carboxamide compounds and their use as calpain inhibitors V” (ABBVIE DEUTSCHLAND GMBH & CO. KG, priority 2012, dated 2015)
Counter-ions that a name gives are not always drawn.

These compounds were tested against T1, calpain-I isolated from human erythrocytes (Homo sapiens, UniProt P07384) (assay: Calpain I kinetic fluorescence enzyme inhibition assay). Conditions: apparent Ki from IC50 by Cheng-Prussoff.
T1 construct: calpain-I—isolated from human erythrocytes (Calbiochem #208713); purchased Calbiochem 208713; host or cells: human erythrocytes (native tissue isolate)
T1 sequence (P07384 1-714): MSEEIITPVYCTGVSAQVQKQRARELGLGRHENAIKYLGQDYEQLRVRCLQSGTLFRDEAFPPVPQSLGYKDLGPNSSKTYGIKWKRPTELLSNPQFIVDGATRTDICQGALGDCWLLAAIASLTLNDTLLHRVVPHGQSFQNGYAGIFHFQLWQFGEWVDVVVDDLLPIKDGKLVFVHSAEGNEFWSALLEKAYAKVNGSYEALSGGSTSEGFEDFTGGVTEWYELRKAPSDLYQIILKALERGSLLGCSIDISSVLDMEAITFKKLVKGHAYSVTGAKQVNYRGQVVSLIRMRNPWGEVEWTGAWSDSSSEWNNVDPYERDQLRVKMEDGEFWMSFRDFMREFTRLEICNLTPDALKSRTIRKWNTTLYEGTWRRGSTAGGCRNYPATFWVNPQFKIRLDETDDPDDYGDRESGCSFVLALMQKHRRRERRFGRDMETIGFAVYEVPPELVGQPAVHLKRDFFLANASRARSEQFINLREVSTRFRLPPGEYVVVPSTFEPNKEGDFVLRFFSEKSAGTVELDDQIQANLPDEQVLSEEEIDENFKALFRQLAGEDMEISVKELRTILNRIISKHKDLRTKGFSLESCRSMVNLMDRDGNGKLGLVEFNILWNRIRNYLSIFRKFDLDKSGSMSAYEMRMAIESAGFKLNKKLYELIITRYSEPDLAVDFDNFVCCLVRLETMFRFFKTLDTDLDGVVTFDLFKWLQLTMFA
T1 sequence (P04632 1-268 partner): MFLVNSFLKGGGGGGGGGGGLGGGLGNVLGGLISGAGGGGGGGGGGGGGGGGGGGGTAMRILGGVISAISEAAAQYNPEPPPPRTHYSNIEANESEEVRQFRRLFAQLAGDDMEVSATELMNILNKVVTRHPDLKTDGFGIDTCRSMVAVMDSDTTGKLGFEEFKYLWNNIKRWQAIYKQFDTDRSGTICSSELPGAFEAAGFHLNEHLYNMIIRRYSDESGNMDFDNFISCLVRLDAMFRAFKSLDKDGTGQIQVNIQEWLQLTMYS
Format: biochemical
Method: Testing for blockade of the corresponding enzymic activities was carried out by means of kinetic fluorescence assays (excitation 390 nm, emission 460 nm).
Apparent Ki values were calculated from the experimentally determined IC50 values by the Cheng-Prussoff relation assuming a reversible competitive enzyme inhibition.
20 nM calpain-I—isolated from human erythrocytes (Calbiochem #208713), 100 μM Suc-Leu-Tyr-AMC (Bachem #I-1355) as substrate in buffer with 62 mM imidazole, 0.3 mM CaCl2, 0.10% CHAPS, 0.05% BSA, 1 mM DTT at pH 7.3 and room temperature.

Ki [nM] | SMILES
250 to 400 | NC(=O)C(=O)C(Cc1ccccc1)NC(=O)c1cccnc1-n1ccc(CN2CCC2)n1 (stereo not shown) [Example 11, N-(4-Amino-3,4-dioxo-1-phenylbutan-2-yl)-2-(3-(azetidin-1-ylmethyl)-1H-pyrazol-1-yl)nicotinamide trifluoroacetate]
< 250 | NC(=O)C(=O)C(Cc1ccccc1)NC(=O)c1cccnc1-n1ccc(CN2CCC(C(F)(F)F)CC2)n1 (stereo not shown) [Example 12, N-(4-Amino-3,4-dioxo-1-phenylbutan-2-yl)-2-(3-((4-(trifluoromethyl)piperidin-1-yl)methyl)-1H-pyrazol-1-yl)nicotinamide trifluoroacetate]
< 250 | NC(=O)C(=O)C(Cc1ccccc1)NC(=O)c1cccnc1-n1ccc(CN2CC3CC(F)(F)CC3C2)n1 (stereo not shown) [Example 13, N-(4-amino-3,4-dioxo-1-phenyl-2-butanyl)-2-{3-[(5,5-difluorohexahydrocyclopenta[c]pyrrol-2(1H)-yl)methyl]-1H-pyrazol-1-yl}nicotinamide trifluoroacetate]
< 250 | NC(=O)C(=O)C(Cc1ccccc1)NC(=O)c1cccnc1-n1ccc(CN2CC3COCC3C2)n1 (stereo not shown) [Example 14, N-(4-Amino-3,4-dioxo-1-phenylbutan-2-yl)-2-(3-((dihydro-1H-furo[3,4-c]pyrrol-5(3H,6H,6aH)-yl)methyl)-1H-pyrazol-1-yl)nicotinamide trifluoroacetate]
< 250 | NC(=O)C(=O)C(Cc1ccccc1)NC(=O)c1cccnc1-n1ccc(CN2CCc3ccccc32)n1 (stereo not shown) [Example 15, N-(4-Amino-3,4-dioxo-1-phenylbutan-2-yl)-2-(3-(indolin-1-ylmethyl)-1H-pyrazol-1-yl)nicotinamide]
< 250 | CN(Cc1ccn(-c2ncccc2C(=O)NC(Cc2ccccc2)C(=O)C(N)=O)n1)c1ccccc1 (stereo not shown) [Example 16, N-(4-Amino-3,4-dioxo-1-phenylbutan-2-yl)-2-(3-((methyl(phenyl)amino)methyl)-1H-pyrazol-1-yl)nicotinamide]
< 250 | NC(=O)C(=O)C(Cc1ccccc1)NC(=O)c1cccnc1-n1ccc(CN2CCC3(CC2)COC3)n1 (stereo not shown) [Example 17, 2-(3-(2-Oxa-7-azaspiro[3.5]nonan-7-ylmethyl)-1H-pyrazol-1-yl)-N-(4-amino-3,4-dioxo-1-phenylbutan-2-yl)nicotinamide trifluoroacetate]
250 to 400 | CCN(CC)Cc1ccn(-c2ncccc2C(=O)NC(Cc2ccccc2)C(=O)C(N)=O)n1 (stereo not shown) [Example 18, N-(4-Amino-3,4-dioxo-1-phenylbutan-2-yl)-2-(3-((diethylamino)methyl)-1H-pyrazol-1-yl)nicotinamide trifluoroacetate]
< 250 | NC(=O)C(=O)C(Cc1ccccc1)NC(=O)c1cccnc1-n1ccc(CN2Cc3ccccc3C2)n1 (stereo not shown) [Example 19, N-(4-Amino-3,4-dioxo-1-phenylbutan-2-yl)-2-(3-(isoindolin-2-ylmethyl)-1H-pyrazol-1-yl)nicotinamide]
< 250 | CN(Cc1ccn(-c2ncccc2C(=O)NC(Cc2ccccc2)C(=O)C(N)=O)n1)C1CCCCC1 (stereo not shown) [Example 20, N-(4-Amino-3,4-dioxo-1-phenylbutan-2-yl)-2-(3-((cyclohexyl(methyl)amino)methyl)-1H-pyrazol-1-yl)nicotinamide trifluoroacetate]
< 250 | CN(Cc1ccccc1)Cc1ccn(-c2ncccc2C(=O)NC(Cc2ccccc2)C(=O)C(N)=O)n1 (stereo not shown) [Example 21, N-(4-Amino-3,4-dioxo-1-phenylbutan-2-yl)-2-(3-((benzyl(methyl)amino)methyl)-1H-pyrazol-1-yl)nicotinamide trifluoroacetate]
< 250 | NC(=O)C(=O)C(Cc1ccccc1)NC(=O)c1cccnc1-n1ccc(CN2CCc3ccccc3C2)n1 (stereo not shown) [Example 22, N-(4-Amino-3,4-dioxo-1-phenylbutan-2-yl)-2-(3-((3,4-dihydroisoquinolin-2(1H)-yl)methyl)-1H-pyrazol-1-yl)nicotinamide]
< 250 | CC(C)(C)C1CCN(Cc2ccn(-c3ncccc3C(=O)NC(Cc3ccccc3)C(=O)C(N)=O)n2)CC1 (stereo not shown) [Example 23, N-(4-Amino-3,4-dioxo-1-phenylbutan-2-yl)-2-(3-((4-tert-butylpiperidin-1-yl)methyl)-1H-pyrazol-1-yl)nicotinamide]
< 250 | CC1CCN(Cc2ccn(-c3ncccc3C(=O)NC(Cc3ccccc3)C(=O)C(N)=O)n2)CC1 (stereo not shown) [Example 24, N-(4-Amino-3,4-dioxo-1-phenylbutan-2-yl)-2-(3-((4-methylpiperidin-1-yl)methyl)-1H-pyrazol-1-yl)nicotinamide trifluoroacetate]
< 250 | CN(Cc1ccn(-c2ncccc2C(=O)NC(Cc2ccccc2)C(=O)C(N)=O)n1)CC1CCC(C(F)(F)F)CC1 (stereo not shown) [Example 25, N-(4-Amino-3,4-dioxo-1-phenylbutan-2-yl)-2-(3-((methyl((4-(trifluoromethyl)cyclohexyl)methyl)amino)methyl)-1H-pyrazol-1-yl)nicotinamide trifluoroacetate]
< 250 | CN(Cc1ccn(-c2ncccc2C(=O)NC(Cc2ccccc2)C(=O)C(N)=O)n1)C1CC1 (stereo not shown) [Example 26, N-(4-Amino-3,4-dioxo-1-phenylbutan-2-yl)-2-(3-((cyclopropyl(methyl)amino)methyl)-1H-pyrazol-1-yl)nicotinamide trifluoroacetate]
< 250 | NC(=O)C(=O)C(Cc1ccccc1)NC(=O)c1cccnc1-n1ccc(CN2CC3C[C@@H](c4ccc(F)cc4)C3C2)n1 (stereo partly drawn) [Example 27, N-(4-Amino-3,4-dioxo-1-phenylbutan-2-yl)-2-(3-(((6R)-6-(4-fluorophenyl)-3-azabicyclo[3.2.0]heptan-3-yl)methyl)-1H-pyrazol-1-yl)nicotinamide trifluoroacetate]
< 250 | NC(=O)C(=O)C(Cc1ccccc1)NC(=O)c1cccnc1-n1ccc(CNc2ccccc2)n1 (stereo not shown) [Example 28, N-(4-Amino-3,4-dioxo-1-phenylbutan-2-yl)-2-(3-((phenylamino)methyl)-1H-pyrazol-1-yl)nicotinamide]
< 250 | NC(=O)C(=O)C(Cc1ccccc1)NC(=O)c1cccnc1-n1ccc(CN2CCC(c3ccccc3)C2)n1 (stereo not shown) [Example 29, N-(4-Amino-3,4-dioxo-1-phenylbutan-2-yl)-2-(3-((3-phenylpyrrolidin-1-yl)methyl)-1H-pyrazol-1-yl)nicotinamide]
< 250 | NC(=O)C(=O)C(Cc1ccccc1)NC(=O)c1cccnc1-n1ccc(CN2Cc3ccc(C(F)(F)F)cc3C2)n1 (stereo not shown) [Example 30, N-(4-Amino-3,4-dioxo-1-phenylbutan-2-yl)-2-(3-((5-(trifluoromethyl)isoindolin-2-yl)methyl)-1H-pyrazol-1-yl)nicotinamide trifluoroacetate]
< 250 | NC(=O)C(=O)C(Cc1ccccc1)NC(=O)c1cccnc1-n1ccc(CN2Cc3ccc(F)cc3C2)n1 (stereo not shown) [Example 31, N-(4-Amino-3,4-dioxo-1-phenylbutan-2-yl)-2-(3-((5-fluoroisoindolin-2-yl)methyl)-1H-pyrazol-1-yl)nicotinamide trifluoroacetate]
< 250 | NC(=O)C(=O)C(Cc1ccccc1)NC(=O)c1cccnc1-n1ccc(CN2CCN(c3ccccc3)CC2)n1 (stereo not shown) [Example 32, N-(4-Amino-3,4-dioxo-1-phenylbutan-2-yl)-2-(3-((4-phenylpiperazin-1-yl)methyl)-1H-pyrazol-1-yl)nicotinamide trifluoroacetate]
